Experimental data published in the kinase profiling compilation of Christmann-Franck et al. (2016).

Experiments:
Assay in all cases: radiometric filter-binding kinase assay
HIPK1 (human) = HIPK1 (human) (UniProt Q86Z02)
TLK1 (human) = TLK1 (human) (UniProt Q9UKI8)
CDK2 CCNA2 (human) = CDK2 CCNA2 (human) (UniProt P20248+P24941)
ULK1 (human) = ULK1 (human) (UniProt O75385)
MARK1 (human) = MARK1 (human) (UniProt Q9P0L2)
DYRK2 (human) = DYRK2 (human) (UniProt Q92630)
MAPKAPK5 (human) = MAPKAPK5 (human) (UniProt Q8IW41)
ERBB4 (human) = ERBB4 (human) (UniProt Q15303)
EPHB2 (human) = EPHB2 (human) (UniProt P29323)
PIM2 (human) = PIM2 (human) (UniProt Q9P1W9)
ROCK2 (rat) = settings: accession and sequence are those of the human protein
EEF2K (human) = EEF2K (human) (UniProt O00418)
IGF1R (human) = IGF1R (human) (UniProt P08069)
STK33 (human) = STK33 (human) (UniProt Q9BYT3)
GCK (human) = GCK (human) (UniProt Q12851)
DDR2 (human) = DDR2 (human) (UniProt Q16832)
Sequence of DDR2 (human) (Q16832 whole entry, looked up): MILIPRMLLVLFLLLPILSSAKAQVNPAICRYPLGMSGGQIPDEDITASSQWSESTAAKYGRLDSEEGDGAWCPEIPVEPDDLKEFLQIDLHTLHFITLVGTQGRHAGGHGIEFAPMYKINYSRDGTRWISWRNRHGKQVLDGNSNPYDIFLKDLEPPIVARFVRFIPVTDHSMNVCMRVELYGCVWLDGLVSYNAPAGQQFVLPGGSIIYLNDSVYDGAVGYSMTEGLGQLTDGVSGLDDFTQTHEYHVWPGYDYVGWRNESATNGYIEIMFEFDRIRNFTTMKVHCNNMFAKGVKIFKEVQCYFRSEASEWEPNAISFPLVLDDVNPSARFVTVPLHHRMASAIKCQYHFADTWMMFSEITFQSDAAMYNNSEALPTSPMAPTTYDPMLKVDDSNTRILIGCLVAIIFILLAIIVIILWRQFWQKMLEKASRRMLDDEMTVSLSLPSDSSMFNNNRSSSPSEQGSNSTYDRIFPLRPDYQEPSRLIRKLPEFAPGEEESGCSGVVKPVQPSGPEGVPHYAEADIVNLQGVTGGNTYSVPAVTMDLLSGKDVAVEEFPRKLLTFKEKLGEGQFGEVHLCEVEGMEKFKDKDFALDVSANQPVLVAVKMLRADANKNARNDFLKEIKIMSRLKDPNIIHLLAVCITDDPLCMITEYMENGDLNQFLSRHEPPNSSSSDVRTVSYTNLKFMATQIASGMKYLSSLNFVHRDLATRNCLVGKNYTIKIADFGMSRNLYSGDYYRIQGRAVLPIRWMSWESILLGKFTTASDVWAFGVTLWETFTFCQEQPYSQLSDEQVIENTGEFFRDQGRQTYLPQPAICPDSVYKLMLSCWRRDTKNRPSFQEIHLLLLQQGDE

MARK2 (human) = MARK2 (human) (UniProt Q7KZI7)
Sequence of MARK2 (human) (Q7KZI7 whole entry, looked up): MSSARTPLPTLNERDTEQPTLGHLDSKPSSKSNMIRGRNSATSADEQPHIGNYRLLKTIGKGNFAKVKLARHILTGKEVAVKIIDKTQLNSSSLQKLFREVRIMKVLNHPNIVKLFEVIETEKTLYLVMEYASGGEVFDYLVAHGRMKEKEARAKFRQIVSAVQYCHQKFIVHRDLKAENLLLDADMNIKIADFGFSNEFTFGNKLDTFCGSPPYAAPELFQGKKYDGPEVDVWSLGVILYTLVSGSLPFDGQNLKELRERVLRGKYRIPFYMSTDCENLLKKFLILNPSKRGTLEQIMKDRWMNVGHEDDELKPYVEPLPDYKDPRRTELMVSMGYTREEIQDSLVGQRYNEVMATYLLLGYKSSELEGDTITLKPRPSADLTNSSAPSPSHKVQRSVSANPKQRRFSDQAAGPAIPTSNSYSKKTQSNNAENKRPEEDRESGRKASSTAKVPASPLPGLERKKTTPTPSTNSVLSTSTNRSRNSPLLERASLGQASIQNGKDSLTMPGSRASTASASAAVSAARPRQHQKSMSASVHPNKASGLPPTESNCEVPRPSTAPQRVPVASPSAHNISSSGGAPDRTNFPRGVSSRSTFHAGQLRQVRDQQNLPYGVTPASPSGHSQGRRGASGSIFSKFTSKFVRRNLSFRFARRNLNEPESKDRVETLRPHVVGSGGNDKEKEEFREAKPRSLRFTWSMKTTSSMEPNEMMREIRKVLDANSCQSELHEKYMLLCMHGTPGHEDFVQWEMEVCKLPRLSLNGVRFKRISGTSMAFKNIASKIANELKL

CSK (human) = CSK (human) (UniProt P41240)
SIK3 (human) = SIK3 (human) (UniProt Q9Y2K2)
CHEK1 (human) = CHEK1 (human) (UniProt O14757)
Sequence of CHEK1 (human) (O14757 whole entry, looked up): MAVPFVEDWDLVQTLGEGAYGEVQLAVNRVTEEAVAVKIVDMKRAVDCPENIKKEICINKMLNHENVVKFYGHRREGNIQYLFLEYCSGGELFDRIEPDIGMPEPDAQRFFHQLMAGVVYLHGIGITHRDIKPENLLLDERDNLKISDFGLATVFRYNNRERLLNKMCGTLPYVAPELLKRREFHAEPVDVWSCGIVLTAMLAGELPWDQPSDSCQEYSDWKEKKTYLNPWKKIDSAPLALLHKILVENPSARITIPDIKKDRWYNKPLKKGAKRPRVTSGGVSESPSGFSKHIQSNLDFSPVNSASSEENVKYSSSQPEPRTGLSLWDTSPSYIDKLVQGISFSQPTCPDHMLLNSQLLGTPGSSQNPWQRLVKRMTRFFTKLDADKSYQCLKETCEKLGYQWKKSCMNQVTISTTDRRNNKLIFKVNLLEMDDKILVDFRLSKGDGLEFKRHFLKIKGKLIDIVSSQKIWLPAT

TTK (human) = TTK (human) (UniProt P33981)
DYRK1A (human) = DYRK1A (human) (UniProt Q13627); settings: compound 1.0 µM
RPS6KA5 KD1 KD2 (human) = RPS6KA5 KD1 KD2 (human) (UniProt O75582)
EPHA2 (human) = EPHA2 (human) (UniProt P29317)
Sequence of EPHA2 (human) (P29317 whole entry, looked up): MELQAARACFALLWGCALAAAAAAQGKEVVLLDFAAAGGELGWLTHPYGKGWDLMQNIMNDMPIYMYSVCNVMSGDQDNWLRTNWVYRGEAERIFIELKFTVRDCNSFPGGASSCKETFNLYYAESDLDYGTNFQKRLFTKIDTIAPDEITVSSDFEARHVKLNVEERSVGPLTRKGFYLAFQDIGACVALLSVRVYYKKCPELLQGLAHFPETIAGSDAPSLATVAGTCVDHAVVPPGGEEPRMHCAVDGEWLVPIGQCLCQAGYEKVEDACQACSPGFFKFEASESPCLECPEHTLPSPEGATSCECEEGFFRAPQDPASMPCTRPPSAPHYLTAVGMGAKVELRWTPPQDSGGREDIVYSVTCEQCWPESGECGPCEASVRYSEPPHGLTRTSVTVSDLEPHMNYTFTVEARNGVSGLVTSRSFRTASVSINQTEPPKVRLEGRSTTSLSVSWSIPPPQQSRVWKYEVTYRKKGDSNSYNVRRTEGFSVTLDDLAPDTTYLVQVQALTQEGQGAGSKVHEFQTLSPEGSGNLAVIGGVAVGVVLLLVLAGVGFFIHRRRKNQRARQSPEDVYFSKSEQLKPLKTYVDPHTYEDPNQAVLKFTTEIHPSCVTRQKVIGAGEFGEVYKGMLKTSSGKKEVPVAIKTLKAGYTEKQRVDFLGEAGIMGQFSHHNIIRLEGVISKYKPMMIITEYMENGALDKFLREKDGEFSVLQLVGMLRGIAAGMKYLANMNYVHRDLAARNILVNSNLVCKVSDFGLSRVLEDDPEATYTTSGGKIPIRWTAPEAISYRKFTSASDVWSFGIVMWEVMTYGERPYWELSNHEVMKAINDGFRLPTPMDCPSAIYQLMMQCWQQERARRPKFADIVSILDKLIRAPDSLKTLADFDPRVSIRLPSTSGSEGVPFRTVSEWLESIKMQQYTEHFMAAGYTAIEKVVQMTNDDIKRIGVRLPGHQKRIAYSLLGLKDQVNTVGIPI

MAP4K3 (human) = MAP4K3 (human) (UniProt Q8IVH8); settings: compound 1.0 µM
MAPK12 (human) = MAPK12 (human) (UniProt P53778)
PLK1 (human) = PLK1 (human) (UniProt P53350)
SRPK1 (human) = SRPK1 (human) (UniProt Q96SB4)
EIF2AK3 (human) = EIF2AK3 (human) (UniProt Q9NZJ5)
BRSK2 (human) = BRSK2 (human) (UniProt Q8IWQ3)
Sequence of BRSK2 (human) (Q8IWQ3 whole entry, looked up): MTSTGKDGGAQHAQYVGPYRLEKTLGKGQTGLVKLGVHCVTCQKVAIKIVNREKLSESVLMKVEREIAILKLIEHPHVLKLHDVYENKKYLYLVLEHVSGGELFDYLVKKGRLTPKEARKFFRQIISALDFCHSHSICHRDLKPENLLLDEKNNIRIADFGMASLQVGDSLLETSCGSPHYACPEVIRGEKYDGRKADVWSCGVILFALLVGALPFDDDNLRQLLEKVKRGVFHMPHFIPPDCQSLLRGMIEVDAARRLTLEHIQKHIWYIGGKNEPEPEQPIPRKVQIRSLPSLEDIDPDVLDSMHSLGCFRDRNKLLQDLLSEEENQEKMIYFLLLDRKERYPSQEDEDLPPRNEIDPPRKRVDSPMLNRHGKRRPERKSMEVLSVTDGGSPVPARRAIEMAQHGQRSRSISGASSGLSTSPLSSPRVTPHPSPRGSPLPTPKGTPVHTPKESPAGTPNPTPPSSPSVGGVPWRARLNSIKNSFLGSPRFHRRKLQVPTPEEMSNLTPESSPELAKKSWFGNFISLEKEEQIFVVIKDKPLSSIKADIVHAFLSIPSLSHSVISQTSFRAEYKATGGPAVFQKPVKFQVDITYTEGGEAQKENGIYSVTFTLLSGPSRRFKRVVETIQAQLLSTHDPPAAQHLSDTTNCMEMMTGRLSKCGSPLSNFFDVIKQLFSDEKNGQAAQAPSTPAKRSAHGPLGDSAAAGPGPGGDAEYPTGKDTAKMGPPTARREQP

DYRK3 (human) = DYRK3 (human) (UniProt O43781)
PRKCZ (human) = PRKCZ (human) (UniProt Q05513)

Sequence of ULK1 (human) (O75385 whole entry, looked up): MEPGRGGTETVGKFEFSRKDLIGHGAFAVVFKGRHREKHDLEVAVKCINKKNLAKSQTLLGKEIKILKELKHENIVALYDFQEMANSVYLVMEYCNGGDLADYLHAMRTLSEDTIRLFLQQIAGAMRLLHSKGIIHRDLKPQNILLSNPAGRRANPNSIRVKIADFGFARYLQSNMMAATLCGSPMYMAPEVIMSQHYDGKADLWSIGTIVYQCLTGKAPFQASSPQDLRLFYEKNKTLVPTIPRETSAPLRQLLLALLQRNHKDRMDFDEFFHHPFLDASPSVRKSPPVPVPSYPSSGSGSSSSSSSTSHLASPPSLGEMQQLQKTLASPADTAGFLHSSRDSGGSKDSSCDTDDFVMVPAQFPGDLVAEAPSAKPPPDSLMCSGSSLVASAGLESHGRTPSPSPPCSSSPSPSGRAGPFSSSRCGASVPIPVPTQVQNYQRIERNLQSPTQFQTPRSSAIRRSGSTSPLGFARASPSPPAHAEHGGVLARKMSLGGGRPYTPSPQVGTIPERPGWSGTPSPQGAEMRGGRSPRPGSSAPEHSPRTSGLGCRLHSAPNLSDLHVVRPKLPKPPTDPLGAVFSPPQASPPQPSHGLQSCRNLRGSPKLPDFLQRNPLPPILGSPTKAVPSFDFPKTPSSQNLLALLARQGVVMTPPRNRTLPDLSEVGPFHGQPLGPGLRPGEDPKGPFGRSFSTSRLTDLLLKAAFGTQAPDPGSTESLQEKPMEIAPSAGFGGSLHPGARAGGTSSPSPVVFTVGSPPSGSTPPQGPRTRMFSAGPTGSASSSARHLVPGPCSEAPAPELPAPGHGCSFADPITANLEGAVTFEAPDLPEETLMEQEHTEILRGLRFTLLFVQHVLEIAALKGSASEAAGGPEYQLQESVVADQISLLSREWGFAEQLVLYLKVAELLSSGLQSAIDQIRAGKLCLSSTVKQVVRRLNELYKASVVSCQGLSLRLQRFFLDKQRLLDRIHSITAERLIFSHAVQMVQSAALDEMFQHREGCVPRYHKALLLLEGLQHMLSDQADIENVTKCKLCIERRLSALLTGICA

In the case of `CNc1nc(Nc2ccc(C(=O)N3CCOCC3)cc2OC)ncc1Cl`, the residual activity (HIPK1 (human); compound 1.0 µM) is reported as 77%, the residual activity (HIPK1 (human); compound 10.0 µM) is reported as 94% and the residual activity (TLK1 (human); compound 1.0 µM) is reported as 61%. It also gave a residual activity (TLK1 (human); compound 10.0 µM) of 100%, a residual activity (CDK2 CCNA2 (human); compound 1.0 µM) of 82% and a residual activity (CDK2 CCNA2 (human); compound 10.0 µM) of 65%. It also gave a residual activity (ULK1 (human); compound 1.0 µM) of 62%, a residual activity (ULK1 (human); compound 10.0 µM) of 85% and a residual activity (MARK1 (human); compound 1.0 µM) of 91%. For the same molecule, the residual activity (MARK1 (human); compound 10.0 µM) was 84%, the residual activity (DYRK2 (human); compound 1.0 µM) was 44% and the residual activity (DYRK2 (human); compound 10.0 µM) was 21%. It also gave a residual activity (MAPKAPK5 (human); compound 1.0 µM) of 91%, a residual activity (MAPKAPK5 (human); compound 10.0 µM) of 44% and a residual activity (ERBB4 (human); compound 1.0 µM) of 89%. For the same molecule, the residual activity (ERBB4 (human); compound 10.0 µM) was 94%, the residual activity (EPHB2 (human); compound 1.0 µM) was 105% and the residual activity (EPHB2 (human); compound 10.0 µM) was 103%. It also gave a residual activity (PIM2 (human); compound 1.0 µM) of 94%, a residual activity (PIM2 (human); compound 10.0 µM) of 97% and a residual activity (ROCK2 (rat); compound 1.0 µM) of 87%. The residual activity (ROCK2 (rat); compound 10.0 µM) was 71%, the residual activity (EEF2K (human); compound 1.0 µM) was 83% and the residual activity (EEF2K (human); compound 10.0 µM) was 86%. The residual activity (IGF1R (human); compound 1.0 µM) was 100%, the residual activity (IGF1R (human); compound 10.0 µM) was 51% and the residual activity (STK33 (human); compound 1.0 µM) was 61%. For the same molecule, the residual activity (STK33 (human); compound 10.0 µM) was 28%, the residual activity (GCK (human); compound 1.0 µM) was 108% and the residual activity (GCK (human); compound 10.0 µM) was 79%. It also gave a residual activity (DDR2 (human); compound 1.0 µM) of 103%, a residual activity (DDR2 (human); compound 10.0 µM) of 90% and a residual activity (MARK2 (human); compound 1.0 µM) of 85%. The residual activity (MARK2 (human); compound 10.0 µM) was 90%, the residual activity (CSK (human); compound 1.0 µM) was 97% and the residual activity (CSK (human); compound 10.0 µM) was 103%. The residual activity (SIK3 (human); compound 1.0 µM) was 93%, the residual activity (SIK3 (human); compound 10.0 µM) was 82% and the residual activity (CHEK1 (human); compound 1.0 µM) was 65%. The residual activity (CHEK1 (human); compound 10.0 µM) was 45%, the residual activity (TTK (human); compound 1.0 µM) was 71% and the residual activity (TTK (human); compound 10.0 µM) was 57%. It also gave a residual activity (DYRK1A (human)) of 79%, a residual activity (RPS6KA5 KD1 KD2 (human); compound 1.0 µM) of 104% and a residual activity (RPS6KA5 KD1 KD2 (human); compound 10.0 µM) of 84%. For the same molecule, the residual activity (EPHA2 (human); compound 1.0 µM) was 93%, the residual activity (EPHA2 (human); compound 10.0 µM) was 97% and the residual activity (MAP4K3 (human)) was 94%. For the same molecule, the residual activity (MAPK12 (human); compound 1.0 µM) was 88%, the residual activity (MAPK12 (human); compound 10.0 µM) was 94% and the residual activity (PLK1 (human); compound 1.0 µM) was 97%. The residual activity (PLK1 (human); compound 10.0 µM) was 105%, the residual activity (SRPK1 (human); compound 1.0 µM) was 96% and the residual activity (SRPK1 (human); compound 10.0 µM) was 94%. The residual activity (EIF2AK3 (human); compound 1.0 µM) was 99%, the residual activity (EIF2AK3 (human); compound 10.0 µM) was 97% and the residual activity (BRSK2 (human); compound 1.0 µM) was 78%. It also gave a residual activity (BRSK2 (human); compound 10.0 µM) of 64%, a residual activity (DYRK3 (human); compound 1.0 µM) of 84% and a residual activity (DYRK3 (human); compound 10.0 µM) of 76%. For the same molecule, the residual activity (PRKCZ (human); compound 1.0 µM) was 99% and the residual activity (PRKCZ (human); compound 10.0 µM) was 101%.
